These results are taken from article PMC12728982, “Multichiral Half-Sandwich Ru(II) and Os(II) Anticancer Complexes Containing a Glutathione Synthesis Inhibitor” (Organometallics, 2025).

What is called IC50 is the midpoint of a concentration-inhibition curve. Higher therefore signals weaker potency in that assay.

Entries after “also recorded” stand apart in the source; their conditions may differ. A value given as a limit tells only on which side of the number the result lay.

Series [1] in a line: Aqueous stability / hydrolysis monitored by 1H NMR. The class given is physicochemical. Particulars: 3:7 v/v methanol-d4:D2O, 310 K, 36 h, then excess NaCl (130 mM) 24 h.
Series [2] deals with intracellular GSH in IGROV-1 cells. Put plainly: Glutathione colorimetric detection assay. The format is cell-based, human. Conditions: IGROV-1, 50 μM, 24 h; statistical significance not confirmed. The method, then:
This lowering was not observed for Ru-LBSO which is not active in this cell line. Other papers have shown a similar result by including L-BSO as an additional agent, therefore showing L-BSO remains inhibitory.
Once the agarose had set , the slides were submerged in alkaline lysis solution (1.3 M NaCl, 100 mM Na2EDTA, 0.1% sodium lauryl sarcosinate, 0.26 M NaOH pH > 13) and incubated overnight at 277 K in the dark. The following day the slides were rinsed for 20 min three times in the electrophoresis solution ([…] NaOH, 2mM Na 2EDTA pH 12.3). The slides were then placed into the electrophoresis tank with fresh electrophoresis buffer, 1 -2 mm above the slides. Electrophoresis was run at 18.3 V for 25 min. Once electrophoresis was complete, slides were rinsed in distilled water and placed in 2.5 µg/mL PI for 20 min. After staining, cells were rinsed in distilled water to remove excess stain. Twenty comet images per sample were taken by confocal microscopy and analysed by OpenComet. 10
1 x 10^6 IGROV-1 cells were seeded in a 6-well plate and incubated for 24 h at 310 K. All complexes (50 µM and 100 µM) were added to the wells and incubated for 24 h. […]
Percentage of IGROV -1 cancer cells in non -apoptotic, apoptotic (early and late) or necrotic phases determined by flow cytometry after 24 h treatment with Os/Ru L -BSO and glycine complexes. […] Standard deviations calculated for N=3. […]

Series [3] has as its system IGROV-1 human ovarian cancer cells. As to the kind of experiment: Cell cycle arrest by flow cytometry (PI). The format is cell-based. Conditions: IGROV-1, 100 μM, 24 h treatment, vs untreated. The method, then: 2 Effect of Os/Ru-LBSO and glycine complexes at 50 or 100 μM on the phases of the cell cycle of IGROV-1 human ovarian cancer cells compared with untreated (control) cells. Percentage of cells in G1 (black bar, cell growth), S (gray, DNA synthesis), G2/M, (white, growth/mitosis) as determined by flow cytometry after 24 h treatment with complexes. […] Standard deviations calculated for N = 3 *p-value <0.05 comparing to untreated sample.
(§1) 2.8 Mammalian cell culture
The human ovarian cancer cell line, IGROV-1; the human cervical cancer cell line, HeLa; the human […]; and the human non-cancerous lung fibroblast cell line, MRC5 were cultured in DMEM supplemented with 10% FBS and 100 units/mL of penicillin and 100 µg/mL of streptomycin (1x pen/strep). All cell lines were incubated at 310 K with 5% CO2 and 95% humidity for routine maintenance and during drug treatment. […]
IGROV-1 cells (1 x 10^6 cells per well) were seeded in a 6-well plate and incubated for 24 h at 310 K. Stock solutions (200 µM) of the complexes were prepared by dissolving the compound in 5% (v/v) DMSO followed by dilution with DMEM and then diluted to desired concentrations. All complexes (50 µM and 100 µM) were added to the wells and incubated for 24 h. Cell pellets were collected using 0.25% trypsin and centrifuged (500 x g, 5 mins at 4 °C). Then washed in PBS and fixed with 100% ice-cold ethanol for 20 min on ice. The ethanol […]
was aspirated, cells washed in ice-cold PBS and then stained with 0.2 mg/mL RNase, 0.05 mg/mL propidium iodide (PI) in PBS for 25 min in the dark and on ice. Excess dye was removed, and cells were re-suspended in PBS. Samples were analysed by flow cytometry using the BD
(Flow cytometry measures light scatter and fluorescence of single cells or particles in a stream.)

The test system of series [4] is IGROV-1 ovarian carcinoma cells. As to the kind of experiment: Antiproliferative activity, SRB assay. The format is cell-based, human. The protocol:
(§2) The antiproliferative activity against human A549 lung, IGROV-1 ovarian, and HeLa cervical cancer cell lines and MRC5 normal lung fibroblasts was determined by the sulforhodamine B (SRB) assay. […] IGROV-1 is known to be cisplatin-sensitive and subject to hypermutation.
as §1
(§3) The human ovarian cancer cell line, IGROV-1; the human cervical cancer cell line, HeLa; the human […]; and the human non-cancerous lung fibroblast cell line, MRC5 were cultured in DMEM supplemented with 10% FBS and 100 units/mL of penicillin and 100 µg/mL of streptomycin (1x pen/strep). All cell lines were incubated at 310 K with 5% CO2 and 95% humidity for routine maintenance and during drug treatment.
(§4) 2.9 Sulforhodamine (SRB) cytotoxicity assay
(§5) Cells were seeded at 5 × 10^3 cells per well and incubated at 310 K for 48 h. Stock solutions (200 µM) of the complexes were prepared by dissolving the compound in 5% (v/v) DMSO followed by dilution with DMEM and serial dilutions with DMEM were prepared (0.1 µM-200 The cells were exposed to the drug for 24 h. The drug was then removed, and cells were allowed to recover for 72 h, in drug-free media. Cell viability was then determined by the SRB colorimetric assay. The solubilised dye absorbance was analysed on a microplate reader (Thermo Scientific Multiskan FC with Scanit software 4.1) at 470 nm. Data were normalized using Microsoft Excel, and dose-response curves fitted using Origin 2016. The IC50 values

Series [5] concerns A549 lung carcinoma cells. As to the kind of experiment: Antiproliferative activity, SRB assay. The class given is cell-based, human. The method, then: as §2, §1, §3, §4, §5
Series [6] has as its system MRC-5 normal lung fibroblasts. As to the kind of experiment: Antiproliferative activity, SRB assay. The format is cell-based, human. The method, then: as §2, §1, §3, §4, §5
(In general: The SRB assay estimates cell density from bound dye.)

As to [(p-cymene)Os(L-BSO)Cl] [Os-LBSO], the “Hydrolysis” value in series [1] is given as “does not readily hydrolyze”. Further, the “Lowering of intracellular GSH level” value in series [2] is recorded as “ca. 50%”. In addition, in series [3], the “G1 arrest (percentage of cells in G1)” value is “significantly increased”. In addition, in series [4] (IGROV-1, SRB), the “Activity against IGROV-1” value is “active”. Also, the IC50 in series [4] (IGROV-1, SRB assay, 24 h treatment, 72 h recovery) was 14.6 ± 0.5 µM; in series [5] (A549, SRB assay, 24 h treatment, 72 h recovery), above 200 µM; in series [6] (MRC-5, SRB assay, 24 h treatment, 72 h recovery) it was 11.8 ± 0.6 µM. In series [5] (A549, SRB), the “Activity toward lung cancer cells” value is “inactive”. Further, the “Activity toward normal lung cells” value in series [6] (MRC-5, SRB) was “highly active; also recorded: some activity”.
